{"source": "patent US11884710B2", "about": "“Peptide compounds and methods of use in wound healing” (priority 2013, dated 2024)", "key": {"[1]": {"test_system": "P. aeruginosa (ATCC 27853)", "test": "Mouse model of Pseudomonas (bacterial) keratitis", "type": "in vivo", "description": "A circular wound was created on the mouse cornea by removing the epithelium and infected with 10^5 colony forming units (CFU) of P. aeruginosa (ATCC® 27853™ (American Type Culture Collection, Manassas, Va.)). Infected wounds were treated with saline (0.9% sodium chloride, vehicle control) or saline containing indicated concentrations of peptide every 15 minutes for 2 hours, then every 30 minutes for 3 hours on the first day. Infected wounds were treated twice on the second day and once on the third day. Mice were killed at 48 hours post-infection, and CFU/eye were quantified. The means were plotted and are representative of 5 to 9 mice per group. Mann Whitney test was performed for each group as compared to the saline control group. *P=0.014. In compound names such as BCC02-5RMP used herein, “R” represents arginine, and “MP” represents a small PEG molecule as defined elsewhere herein (such as, for example but not by way of limitation, “AEEP”).\n(§1) A circular wound was created on the mouse cornea by removing the epithelium, and the wound was infected with 10^5 CFU of P. aeruginosa (ATCC® 27853™ (American Type Culture Collection, Manassas, Va.)). Infected wounds were treated with saline or saline containing indicated concentrations (2, 5, 10, and 20 mg/ml) of peptide every 30 minutes for 6 hours on the first day. Infected wounds were treated twice on the second day and once on the third day. Mice were killed at 48 hours post-infection, and the CFU/eye were quantified. The means are plotted and are representative of 5 mice per group. Mann Whitney test was performed for each group as compared to the saline control group. *P=0.015 and **P=0.097.\nas §1, with “representative of 4 to 5 mice” for “representative of 5 mice”, “control group.” for “control group. *P=0.015 and **P=0.097.”\nas §1, with “group. **P=0.0079 by” for “group.”, “test” for “test was performed for each group”, “group.” for “group. *P=0.015 and **P=0.097.”\nA circular wound (2 mm) was created on the mouse cornea by removing the epithelium and infecting the wound with 10^5 CFU of P. aeruginosa (ATCC® 27853™ (American Type Culture Collection, Manassas, Va.)). Infected wounds were treated with saline or saline containing indicated concentrations of peptide every 15 minutes for 2 hours, then every 30 minutes for 3 hours on the first day. […] Mice were killed at 48 hours post-infection, and the colony forming units per eye (CFU/eye) were quantified. […]"}, "[2]": {"test_system": "Pseudomonas aeruginosa ATCC 27853", "test": "In vitro bactericidal assay, P. aeruginosa ATCC 27853 (FIGS. 12-14)", "type": "cell-based", "settings": "FIG. 14; pH 5.5; 180 minutes; even at the lower concentration (75 μg/ml)", "description": "(§2) Each of the test peptides was used at 25, 12.5 6.25, and 3.12 μM. The gentamicin was used at 4 μg/ml. 1×10^6/ml Pseudomonas aeruginosa ATCC® 27853™ (American Type Culture Collection, Manassas, Va.) were incubated with the peptides, negative buffer control (tryptone saline), and positive control gentamicin for 180 minutes at pH 7.2. 50 μl aliquots were plated out on agar plates and incubated overnight. Colony forming units were counted after overnight incubation and CFU/ml calculated.\nas §2, with “12.5,” for “12.5”, “5.5.” for “7.2.”\nFIG. 14 is a comparison of bactericidal activity of CAP37 peptides 120-146WR (SEQ ID NO:30), 120-146WH (SEQ ID NO:31), 120-146QR (SEQ ID NO:28), 120-146QH (SEQ ID NO:29), 120-146QR-5RMP (SEQ ID NO:32), and 120-146QH-5RMP (SEQ ID NO:33) for Pseudomonas aeruginosa ATCC® 27853™ (American Type Culture Collection, Manassas, Va.). 1×10^6/ml Pseudomonas aeruginosa ATCC® 27853™ were incubated with the peptides at 150, 75, and 37.5 μg/ml and negative buffer control (tryptone saline) for 180 minutes at pH 5.5. 50 μl aliquots were plated out on agar plates and incubated overnight. Colony forming units were counted after overnight incubation and CFU/ml calculated.\nFor FIGS. 10-13, in vitro bactericidal assays were performed using a starting inoculum of 1×10^6 CFU/ml of the bacterial suspension. The CFU remaining at the end of the 60-180 minute incubation was determined, and the data was plotted as log reduction in CFU/ml.\nIn particular, each of the test peptides (CAP37 peptides 120-146WR, 120-146WH, and 95-122 (SEQ ID NOS:30, 31, and 26, respectively)) was used at 25, 12.5, 6.25, and 3.12 μM. Gentamicin was used at 4 μg/ml. 1×10^6/ml Acinetobacter baumannii ATCC® BAA-747™ or Pseudomonas aeruginosa ATCC® 27853™ (American Type Culture Collection, Manassas, Va.) were incubated with the peptides, negative buffer control (tryptone saline), and positive control gentamicin at pH 5.5 or 7.2. A 60 minute incubation was used for Acinetobacter baumannii ATCC® BAA-747™, while a 180 minute incubation was used for Pseudomonas aeruginosa ATCC® 27853™. 50 μl aliquots were plated out on agar plates and incubated overnight. Colony forming units were counted after overnight incubation and CFU/ml calculated.\nFor FIG. 14, 1×10^6/ml Pseudomonas aeruginosa ATCC® 27853™ were incubated with each of the test peptides (CAP37 peptides 120-146WR, 120-146WH, 120-146QR, 120-146QH, 120-146QR-5RMP, and 120-146QH-5RMP (SEQ ID NOS:30, 31, 28, 29, 32, and 33, respectively)) at 150, 75, and 37.5 μg/ml, or negative buffer control (tryptone saline), for 180 minutes at pH 5.5. 50 μl aliquots were plated out on agar plates and incubated overnight. Colony forming units were counted after overnight incubation and CFU/ml calculated."}}, "note": "Square brackets hold non-standard residues; d marks the D form. Ends that are not written are not given here. PEG2 = NCCOCCOCCC(=O)O", "data": [{"substance": "(AEEP)-(AEEP)-RRRRGTRCQVAGWGSQRSGGRLSRFPRFVNVR ([PEG2][PEG2]RRRRGTRCQVAGWGSQRSGGRLSRFPRFVNVR) [120-146QR-5RMP]", "values": [{"measurement": "mice with no viable bacteria in the eye after treatment", "setting": "[1]; the 10 and 20 mg/ml groups together", "value": "Six of the 10 mice"}, {"measurement": "CFU/eye vs saline, in words", "setting": "[1]; topical doses of 10 and 20 mg/ml, 48 hours post-infection", "value": "significantly reduced the CFU/eye"}, {"measurement": "reduction in CFU", "setting": "[2]", "value": "~6", "unit": "log"}]}]}
